US5498601A, “Platelet aggregation-inhibiting peptides” (Nippon Steel Corporation, priority 1992, dated 1996)
Residues, ends and D or L forms follow the SMILES beside them. *: point of attachment. X1 = O=C(c1cc(=O)[nH]c(=O)[nH]1)*

Key:
[1] = tested on: human platelets
Experimental: (§4) Immediately after the blood collection, the syringe was stirred gently to mix the blood with the sodium citrate solution. The mixed blood was centrifuged (1100 rpm, 250 g) at room temperature for 15 minutes and the rotation was stopped without applying the brake. Then, the supernatant was collected with a pipette to obtain a platelet fraction. The remaining blood was further centrifuged (3000 rpm, 1000 g). The supernatant was collected to obtain platelet-poor plasma and stored.
(§5) The platelet fraction was placed in a polypropylene test tube, which was capped with a membrane filter to ensure breathability. Then, the test tube was placed on a shaker and stored at room temperature while shaking through vibrational amplitude of 20 cm at a frequency of 2 Hz. All the operations were performed under aseptic conditions to prevent the proliferation of bacteria during the storage.
(§6) After the storage for a given period of time, an aliquot of the platelet fraction was sampled and the number of platelets was measured. Prostaglandin E1 (Sigma Co.) was added to give a final concentration of 20 μg/ml and centrifuged at 750 g for 10 minutes. The supernatant was removed and the remainder was washed twice with HEPES-Tyrode's buffer containing prostaglandin E1 to remove the protected peptide. Finally, the platelets were suspended in preliminarily stored platelet-poor plasma. After the incubation for a given period of time, the aggregation ability of the platelets was determined by the method described above.

[2] = tested on: B16F10 melanoma cells; test: adhesion of B16F10 melanoma cells to extracellular matrix protein adsorbed plates; format: cell-based
Experimental: (§1) (1) Using type 1 collagen (Iwaki Glass, type I-c), type 4 collagen (Iwaki Glass, type IV), fibronectin (human-origin, Iwaki Glass), vitronectin (human-origin, Iwaki Glass) and laminin (mouse […] sarcoma-origin, Iwaki Glass) as extracellular matrix proteins, experiments were performed to examine cell adhesion to a plastic plate on which those ectracellular matrix proteins had been adsorbed.
(§2) Each of the collagens was diluted with saline (adjusted to pH 3.0 with hydrochloric acid) to prepare a dilution at a concentration of 100 μg/ml for use in adsorption. The remaining three proteins were diluted with PBS of pH 7.4 to prepare dilutions at a concentration of 20 μg/ml for further use. […]
(§3) After the incubation for one hour according to the method described above, all the liquid present in each well was removed and the wells were washed three times with PBS to remove non-adherent cells. […] The concentration of methylene blue releasing from the cells was determined by a spectrophotometer on the basis of absorbance at 600 nm measured. In this measurement system, the number of cells adhering to the extracellular matrix proteins is proportional to the absorbance at 600 nm and therefore can be measured with precision.

[3] = tested on: platelet aggregation; test: intravenous injection in beagle, platelet aggregation of PRP measured over time; format: in vivo; settings: 5 mg/Kg i.v.
Experimental: (1) In order to examine how long the peptides of the present invention and heparin, which is used as an anticoagulant at present, can remain without being broken down or eliminated and how long the activity of them persists, intravenous injection experiments were carried out using beagles.
Since the peptides of the present invention have the platelet aggregation-inhibiting activity, the amount of the peptides which remain in the body of an organism without being broken down can be determined by collecting blood and measuring the platelet aggregation-inhibiting activity of the blood at given intervals of time. Thus, the in vivo stability of the peptides can be estimated.
In the experiments, a male beagle having a body weight of 10 Kg was used. […] The collected blood was centrifuged at 1000 rpm for 10 minutes to prepare platelet-rich plasma (PRP). The reminder was further centrifuged at 3000 rpm for 15 minutes to prepare platelet-poor plasma (PPP).
The platelet aggregation ability was determined by measuring the platelet aggregation of the PRP with collagen and ADP using an aggregometer. In the measurement, ADP was added at a final concentration of 7.5 and 10.0 μM and collagen was added at a final concentration of 7.5 and 10.0 μg/ml.

[4] = tested on: human platelets; test: protection of human platelet fraction during storage
Experimental: as §4, §5, §6

[5] = tested on: blood coagulation in the dialysis circuit; test: extracorporeal circulation (artificial dialysis) model using a beagle; format: in vivo
Experimental: In order to confirm that the peptides of the present invention have the action of inhibiting blood coagulation in an extracorporeal circulation system, experiments were carried out on an artificial dialysis model using a beagle which is one of extracorporeal circulation models (see Hamano et al., Thromb. Res. 55 (1989) 438-449).
In the experiments, beagles weighing about 10-12 Kg were used. The beagles were anesthetized with pentobarbital (about 30 mg/Kg) and the right hind leg was incised to expose the femoral artery and femoral vein. Cannulas were inserted into the exposed femoral artery and femoral vein and connected to the artificial dialyzator for experiments (Kuraray, Osaka, Japan) having a circuit configuration as shown in FIG. 5. A hollow-fiber dialyzer (RENAK-A, RA-04, 0.4 m^2, Kawasumi Laboratories, Tokyo) was used. A pump for blood was placed between the femoral artery and the dialyzator and operated to keep the blood flow rate at 25 ml/min in the extracorporeal circulation system during the experiments.
The following three parameters were measured in the experiments: 1 the pressure in the up-stream portion of the dialyzer (perfusion pressure), 2 the percent platelet adhesion and 3 the whole blood coagulation time. The pressure under 1 was measured by a pressure gauge incorporated in the upper stream portion of the dialyzator in the dialysis circuit as shown in FIG. 5. Since at the site of dialyzer blood often experiences contacts with foreign materials and blood flows in a narrow space, blood coagulation is most likely to occur at this site in the dialysis circuit. If blood coagulation occurs there, the dialyzer is clogged and the blood pressure in the up-stream portion will increase. The change in the perfusion pressure at this site indicates the degree of blood coagulation in the dialysis circuit. In connection with parameters2 and 3, an aliquot of blood was sampled at the inlet and outlet of the dialysis part at given intervals of time to measure 2 and 3 by conventional methods. Parameters 2 and 3 indicate how the function of platelets and that of blood coagulation (the degree of activation), respectively, change with the progress of the experiments.
The experiments began with a continuous injection of a solution of the peptide of the present invention in saline from the arterial side (or the inlet side of the dialysis circuit) immediately after the circuit set-up. The amount of injection was 10 mg/dog or 30 mg/dog and the total amount was gradually injected over 1 hour (injection rate: 1 ml/min). In a control, only saline was continuously injected in the same manner. The injection of the drug was stopped after 60 minutes and blood was thereafter circulated up to 180 minutes to continue the measurement of the above parameters. […]

[6] = tested on: Hela cells; test: adhesion of HeLa cells to extracellular matrix protein adsorbed plates; format: cell-based
Experimental: as §1, §2, §3

[7] = tested on: platelet aggregation; settings: 400 μM; cited from earlier work
[8] = type 1 collagen, type 4 collagen, fibronectin, vitronectin
[9] = during the continuous injection of the drug

Molecule: NC(N)=NCCC[C@H](N)C(=O)NCC(=O)N[C@@H](CC(=O)O)C(=O)N[C@@H](CO)C(=O)O [Comparative Example 1, Arg--Gly--Asp--Ser--OH]
- stability when added to a platelet fraction [1]: broken down in several hours

Molecule: N=C(N)NCCC[C@H](NC(=O)[C@H](CO)NC(=O)c1cc(=O)[nH]c(=O)[nH]1)C(=O)NCC(=O)N[C@@H](CC(=O)O)C(=O)N[C@@H](Cc1c[nH]c2ccccc12)C(=O)O [Example 9, Orotyl--Ser--Arg--Gly--Asp--Trp--OH] (X1-SRGDW-OH)
- effect on cell adhesion to laminin ([2]; laminin): scarcely any effect
- cell adhesion to the other extracellular matrix proteins [2, 8]: inhibited depending on the concentration
- platelet aggregation time course with changed collagen concentration or ADP as inducer [3]: the same results were obtained
- platelet aggregation 5 minutes after the injection ([3]; collagen 10 μg/ml as inducer): completely inhibited
- time to complete recovery of platelet aggregation activity to the level before the injection ([3]; collagen 10 μg/ml as inducer): 45 to 60 min
- aggregation activity of platelets remaining ([4]; 400 μM, after the 72 hour storage): 60-70%
- decrease in the number of platelets ([4]; 400 μM, storage period of 72 hours): little decrease in the number of platelets
- decrease in the aggregation activity of platelets during storage ([4]; dependent on peptide concentration, control decreased to 25% in 72 hours): the decrease in the aggregation activity was significantly inhibited
- decrease in the number of platelets during storage compared to the control group ([4]; room temperature, shaking, dependent on peptide concentration): significant inhibitory effect on the decrease in the number of platelets
- increase in the perfusion pressure ([5]; 10 mg/dog continuously injected over 1 hour): the increase rate of the perfusion pressure was evidently slow
- increase in the perfusion pressure ([5]; 30 mg/dog continuously injected over 1 hour, during the injection): little or no increase in the perfusion pressure
- blood coagulation ability during the continuous injection [5, 9]: approximately 0%
- whole blood coagulation time [5, 9]: significantly prolonged
- effect on cell adhesion to laminin ([6]; laminin): scarcely any effect
- cell adhesion to the other extracellular matrix proteins [6, 8]: inhibited depending on the concentration

Molecule: GRGDSP
- aggregation of platelets activated by ADP [7]: completely inhibited
